Assay results: article PMC8606745 (Frontiers in Microbiology, 2021)
Read-outs that look alike come from different tables or passages of the source. Square brackets hold non-standard residues; d marks the D form. Peptide text beside a SMILES is read from it. * marks the point of attachment. Lauroyl = CCCCCCCCCCCC(=O)*; Butyryl = CCCC(=O)*

Experiments:
[1] = tested on: X. fastidiosa subsp. fastidiosa IVIA 5387.2; details: for log reduction of cell viability: 3 h, 50 μM
[2] = tested on: X. fastidiosa subsp. fastidiosa IVIA 5387.2; assay type: cell-based, Xylella fastidiosa
[3] = tested on: horse erythrocytes

| Compound | Bactericidal activity: Reduction in viability (Log N0/N) [1] | Biofilm formation Level (antibiofilm activity) [2] | Biofilm formation Ratio (treatment/NTC) [2] | Planktonic cells Ratio (treatment/NTC) [2] | also measured |
| --- | --- | --- | --- | --- | --- |
| CC[C@H](C)[C@H](NC(=O)[C@H](C)NC(=O)[C@H](Cc1c[nH]cn1)NC(=O)[C@@H]1CCCN1C(=O)[C@@H](NC(=O)[C@H](CC(C)C)NC(=O)[C@H](CO)NC(=O)[C@H](Cc1ccccc1)NC(=O)[C@H](CC(C)C)NC(=O)[C@@H](N)Cc1ccccc1)[C@@H](C)CC)C(=O)NCC(=O)NCC(=O)N[C@@H](CC(C)C)C(=O)N[C@H](C(=O)N[C@@H](CO)C(=O)N[C@@H](C)C(=O)N[C@@H](Cc1ccccc1)C(=O)N[C@@H](CCCCN)C(N)=O)[C@@H](C)CC [AamAP1] | 1.38 ± 0.12 Log N0/N |  |  |  | Effect on X. fastidiosa growth in the antibiofilm test [2]: affected X. fastidiosa’s growth; Hemolysis ([3]; 150 µM): 100.00 ± 1.3%; Hemolysis ([3]; 250 µM): 100.0 ± 4.1%; Hemolysis ([3]; 375 µM): 100.0 ± 4.4% |
| CC[C@H](C)[C@H](NC(=O)[C@H](C)NC(=O)[C@H](CCCNC(=N)N)NC(=O)[C@@H]1CCCN1C(=O)[C@@H](NC(=O)[C@H](CC(C)C)NC(=O)[C@H](CO)NC(=O)[C@H](Cc1ccccc1)NC(=O)[C@H](CC(C)C)NC(=O)[C@@H](N)Cc1ccccc1)[C@@H](C)CC)C(=O)NCC(=O)NCC(=O)N[C@@H](CC(C)C)C(=O)N[C@H](C(=O)N[C@@H](CO)C(=O)N[C@@H](C)C(=O)N[C@@H](Cc1ccccc1)C(=O)N[C@@H](CCCCN)C(N)=O)[C@@H](C)CC [AamAP-R] | 0.78 ± 0.01 Log N0/N |  |  |  | Effect on X. fastidiosa growth in the antibiofilm test [2]: affected X. fastidiosa’s growth |
| CC[C@H](C)[C@H](NC(=O)[C@H](C)NC(=O)[C@H](CCCCN)NC(=O)[C@@H]1CCCN1C(=O)[C@@H](NC(=O)[C@H](CC(C)C)NC(=O)[C@H](CO)NC(=O)[C@H](Cc1ccccc1)NC(=O)[C@H](CC(C)C)NC(=O)[C@@H](N)Cc1ccccc1)[C@@H](C)CC)C(=O)NCC(=O)NCC(=O)N[C@@H](CC(C)C)C(=O)N[C@H](C(=O)N[C@@H](CO)C(=O)N[C@@H](C)C(=O)N[C@@H](Cc1ccccc1)C(=O)N[C@@H](CCCCN)C(N)=O)[C@@H](C)CC [AamAP-S1] | 2.45 ± 0.09 Log N0/N |  |  |  | log reduction of cell viability [1]: 2-3 log; Effect on X. fastidiosa growth in the antibiofilm test [2]: affected X. fastidiosa’s growth |
| CCCC(=O)N[C@H](C(=O)N[C@@H](CC(C)C)C(=O)N1CCC[C@H]1C(=O)N[C@H](Cc1ccccc1)C(=O)N[C@@H](CCCCN)C(=O)N[C@H](Cc1ccccc1)C(=O)N1CCC[C@H]1C(=O)N[C@H](Cc1ccccc1)C(=O)N[C@H](Cc1ccccc1)C(=O)N1CCC[C@H]1C(=O)N[C@H](Cc1ccccc1)C(=O)N[C@@H](CCCNC(=N)N)C(=O)N[C@@H](CCCNC(=N)N)C(N)=O)[C@@H](C)CC [BP526] (Butyryl-ILP[dF]K[dF]P[dF][dF]P[dF]RR-NH2) |  |  |  |  | Bactericidal activity: Reduction in viability (Log N0/N) ([1]; 50 µM): 0.56 ± 0.03 Log N0/N; Biofilm formation Level (antibiofilm activity) ([2]; 50 µM): High (key: High: high antibiofilm activity (ratio of biofilm formation from 0.01 to 0.2); Moderate: moderate activity (ratio from 0.29 to 0.47); Low: low activity (ratio from 0.72 to 0.77)); Biofilm formation Ratio (treatment/NTC) ([2]; 50 µM): 0.17 ± 0.02; Planktonic cells Ratio (treatment/NTC) ([2]; 50 µM): 2.17 ± 0.02; Hemolysis ([3]; 150 µM): 8.3 ± 0.7%; Hemolysis ([3]; 250 µM): 20.4 ± 0.7%; Hemolysis ([3]; 375 µM): 46.8 ± 3.3% |
| CCCCCCCCCCCC(=O)N[C@H](C(=O)N[C@@H](CC(C)C)C(=O)N1CCC[C@H]1C(=O)N[C@H](Cc1ccccc1)C(=O)N[C@@H](CCCCN)C(=O)N[C@H](Cc1ccccc1)C(=O)N1CCC[C@H]1C(=O)N[C@H](Cc1ccccc1)C(=O)N[C@H](Cc1ccccc1)C(=O)N1CCC[C@H]1C(=O)N[C@H](Cc1ccccc1)C(=O)N[C@@H](CCCNC(=N)N)C(=O)N[C@@H](CCCNC(=N)N)C(N)=O)[C@@H](C)CC [BP528] (Lauroyl-ILP[dF]K[dF]P[dF][dF]P[dF]RR-NH2) |  |  |  |  | Bactericidal activity: Reduction in viability (Log N0/N) ([1]; 50 µM): 0.61 ± 0.12 Log N0/N; Biofilm formation Level (antibiofilm activity) ([2]; 50 µM): High (key: High: high antibiofilm activity (ratio of biofilm formation from 0.01 to 0.2); Moderate: moderate activity (ratio from 0.29 to 0.47); Low: low activity (ratio from 0.72 to 0.77)); Biofilm formation Ratio (treatment/NTC) ([2]; 50 µM): 0.03 ± 0.01; Planktonic cells Ratio (treatment/NTC) ([2]; 50 µM): 0.99 ± 0.06; Hemolysis ([3]; 150 µM): 92.1 ± 5.7%; Hemolysis ([3]; 250 µM): 96.6 ± 3.1%; Hemolysis ([3]; 375 µM): 99.1 ± 8.0% |
| CC[C@H](C)[C@H](NC(=O)CN)C(=O)NCC(=O)N[C@@H](CCCCN)C(=O)N[C@@H](Cc1ccccc1)C(=O)N[C@@H](CC(C)C)C(=O)N[C@@H](Cc1c[nH]cn1)C(=O)N[C@@H](CO)C(=O)N[C@@H](C)C(=O)N[C@@H](CCCCN)C(N)=O [Magainin 2(1-10)] (H-GIGKFLHSAK-NH2) | 0.00 ± 0.06 Log N0/N | Low (key: High: high antibiofilm activity (ratio of biofilm formation from 0.01 to 0.2); Moderate: moderate activity (ratio from 0.29 to 0.47); Low: low activity (ratio from 0.72 to 0.77)) | 0.77 ± 0.02 | 1.67 ± 0.07 |  |
| CC[C@H](C)[C@H](NC(=O)[C@H](CCCNC(=N)N)NC(=O)[C@H](Cc1ccccc1)NC(=O)[C@H](CCC(N)=O)NC(=O)[C@@H](N)CCCCN)C(=O)N[C@@H](CCCNC(=N)N)C(=O)N[C@H](C(=O)N[C@@H](CCCNC(=N)N)C(=O)N[C@H](C(N)=O)C(C)C)C(C)C [Peptide 1029] (H-KQFRIRVRV-NH2) | 1.18 ± 0.08 Log N0/N | High (key: High: high antibiofilm activity (ratio of biofilm formation from 0.01 to 0.2); Moderate: moderate activity (ratio from 0.29 to 0.47); Low: low activity (ratio from 0.72 to 0.77)) | 0.20 ± 0.01 | 1.71 ± 0.04 |  |
| CC[C@H](C)[C@H](NC(=O)[C@H](CCCNC(=N)N)NC(=O)[C@H](Cc1ccccc1)NC(=O)[C@H](CCC(N)=O)NC(=O)[C@@H](N)C(C)C)C(=O)N[C@@H](CCCNC(=N)N)C(=O)N[C@H](C(=O)N[C@@H](CCCNC(=N)N)C(=O)N[C@H](C(=O)N[C@H](C(=O)N[C@H](C(=O)N[C@@H](CCCNC(=N)N)C(=O)N[C@@H](CCCCN)C(N)=O)[C@@H](C)CC)C(C)C)[C@@H](C)CC)C(C)C [Peptide 1036] (H-VQFRIRVRIVIRK-NH2) |  | High (key: High: high antibiofilm activity (ratio of biofilm formation from 0.01 to 0.2); Moderate: moderate activity (ratio from 0.29 to 0.47); Low: low activity (ratio from 0.72 to 0.77)) |  | 2.16 ± 0.06 | log reduction [1]: 3.48 log |
| CC[C@@H](C)[C@@H](NC(=O)[C@H](N)CCCNC(=N)N)C(=O)N[C@@H](C(=O)N[C@H](Cc1c[nH]c2ccccc12)C(=O)N[C@@H](C(=O)N[C@H](CCCNC(=N)N)C(=O)N[C@@H](C(=O)N[C@H](CCCNC(=N)N)C(=O)N[C@H](CCCNC(=N)N)C(=O)N[C@H](Cc1c[nH]c2ccccc12)C(=O)N[C@H](Cc1ccccc1)C(=O)N[C@@H](C(N)=O)C(C)C)[C@H](C)CC)C(C)C)C(C)C [RIJK2] (H-[dR][dI][dV][dW][dV][dR][dI][dR][dR][dW][dF][dV]-NH2) |  | High (key: High: high antibiofilm activity (ratio of biofilm formation from 0.01 to 0.2); Moderate: moderate activity (ratio from 0.29 to 0.47); Low: low activity (ratio from 0.72 to 0.77)) |  | 1.43 ± 0.09 |  |
| CC[C@H](C)[C@H](NC(=O)[C@H](Cc1c[nH]c2ccccc12)NC(=O)[C@H](CCCCN)NC(=O)[C@H](CCCCN)NC(=O)[C@@H](NC(=O)[C@H](CCCNC(=N)N)NC(=O)[C@H](CCCNC(=N)N)NC(=O)[C@@H](NC(=O)[C@@H](N)Cc1c[nH]c2ccccc12)[C@@H](C)CC)[C@@H](C)CC)C(=O)N[C@@H](CCCNC(=N)N)C(=O)N[C@@H](CCCNC(=N)N)C(=O)N[C@H](C(=O)N[C@@H](Cc1c[nH]cn1)C(=O)N[C@@H](CCCCN)C(N)=O)C(C)C [RR2-NH2] (H-WIRRIKKWIRRVHK-NH2) | 1.43 ± 0.12 Log N0/N | High (key: High: high antibiofilm activity (ratio of biofilm formation from 0.01 to 0.2); Moderate: moderate activity (ratio from 0.29 to 0.47); Low: low activity (ratio from 0.72 to 0.77)) | 0.13 ± 0.01 | 2.13 ± 0.07 |  |
| CC[C@H](C)[C@H](NC(=O)[C@H](CCCNC(=N)N)NC(=O)[C@H](CCCNC(=N)N)NC(=O)[C@H](CC(C)C)NC(=O)[C@@H](N)Cc1c[nH]c2ccccc12)C(=O)N[C@@H](CCCCN)C(=O)N[C@@H](C)C(=O)N[C@@H](Cc1c[nH]c2ccccc12)C(=O)N[C@@H](CC(C)C)C(=O)N[C@@H](CCCNC(=N)N)C(=O)N[C@@H](CCCNC(=N)N)C(=O)N[C@@H](CCCCN)C(=O)N[C@@H](CCCNC(=N)N)C(=O)N[C@@H](CCCCN)C(N)=O [RR3-NH2] (H-WLRRIKAWLRRKRK-NH2) | 0.89 ± 0.09 Log N0/N | Moderate (key: High: high antibiofilm activity (ratio of biofilm formation from 0.01 to 0.2); Moderate: moderate activity (ratio from 0.29 to 0.47); Low: low activity (ratio from 0.72 to 0.77)) | 0.29 ± 0.01 | 1.66 ± 0.09 |  |
| CC[C@H](C)[C@H](NC(=O)[C@H](CCCNC(=N)N)NC(=O)[C@H](CCCNC(=N)N)NC(=O)[C@H](CC(C)C)NC(=O)[C@H](Cc1c[nH]c2ccccc12)NC(=O)[C@H](C)NC(=O)[C@H](CCCCN)NC(=O)[C@@H](NC(=O)[C@H](CCCNC(=N)N)NC(=O)[C@H](CCCNC(=N)N)NC(=O)[C@H](CC(C)C)NC(=O)[C@@H](N)Cc1c[nH]c2ccccc12)[C@@H](C)CC)C(=O)N[C@@H](CCCCN)C(=O)N[C@@H](C)C(N)=O [RR4-NH2] | 2.08 ± 0.09 Log N0/N | High (key: High: high antibiofilm activity (ratio of biofilm formation from 0.01 to 0.2); Moderate: moderate activity (ratio from 0.29 to 0.47); Low: low activity (ratio from 0.72 to 0.77)) | 0.20 ± 0.01 | 1.84 ± 0.05 | log reduction of cell viability [1]: 2-3 log |
| Cecropin B |  |  |  |  | Bactericidal activity: Reduction in viability (Log N0/N) ([1]; 3.1 µM): 2.13 ± 0.10 Log N0/N; Bactericidal activity: Reduction in viability (Log N0/N) ([1]; 12.5 μM): 3.19 ± 0.06 Log N0/N; log reduction ([1]; 12.5 μM): 3.19 log; Bactericidal activity: Reduction in viability (Log N0/N) ([1]; 50 µM): 4.00 ± 0.10 Log N0/N |
